According to patent publication US6455250B1, “Endonuclease compositions and methods of use” (The Regents of the University of California, priority 1997, dated 2002):
“Also recorded” adds a separate entry of the source.

How the values were obtained:
Endo-SR = molecular target: T1, Endo-SR (Mus musculus, UniProt P56542); test: Effect of M^2+ species and EDTA on murine Endo-SR activity (Example 1, FIG. 3B); assay type: biochemical
T1 construct: All nuclease assays were performed with Fraction IV enzyme (see below) as the source for Endo-SR activity, unless otherwise specified; endogenous in cells; host or cells: murine 38B9 pre-B cell line, nuclear extract, chromatographic Fraction IV (BioRex 70, 300 mM NaCl step)
T1 sequence (P56542 20-353): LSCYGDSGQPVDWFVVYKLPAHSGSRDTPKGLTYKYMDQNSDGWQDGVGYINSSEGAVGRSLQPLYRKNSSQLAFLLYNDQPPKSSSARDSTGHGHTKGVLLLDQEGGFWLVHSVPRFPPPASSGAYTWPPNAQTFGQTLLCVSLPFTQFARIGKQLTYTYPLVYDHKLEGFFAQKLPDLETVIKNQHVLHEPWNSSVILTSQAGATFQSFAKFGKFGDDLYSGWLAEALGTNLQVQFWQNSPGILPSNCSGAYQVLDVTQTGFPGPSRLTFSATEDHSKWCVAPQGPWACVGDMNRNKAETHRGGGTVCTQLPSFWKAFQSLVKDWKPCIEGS
Description: FIG. 3B. Effect of M^2+ species on Endo-SR activity. Nuclease assays were performed as previously described but with varied concentrations of different M^2+ species (or EDTA) replacing the standard (5 mM Mg^2+) assay condition. Activity values shown are expressed as percentages of an activity detected in a control assay (0 μM) containing no added M^2+ species.
Endonuclease assays were conducted in 10 μl reaction volumes containing 10 mM bis-Tris (pH6.5), 5 mM MgCl2, ˜250 pmoles of an end-labeled (^32P) DNA substrate, 1 μg of calf-thymus DNA, and 1 μl of an active Endo-SR fraction. […] All nuclease assays were performed with Fraction IV enzyme (see below) as the source for Endo-SR activity, unless otherwise specified. Nuclease assays performed for biochemical analysis of Endo-SR activity were conducted as described except for the addition or substitution of the test material. Reactions were incubated at 37° C. for 30 min, then mixed with an equal volume of formamide dye (Ausubel et al., 1987) and heated to 95° C. for 5 min prior to electrophoresis on an appropriate percentage (8-15%) sequencing gel. After electrophoresis, these gels were transferred to Whatman paper, dried, and exposed to film for 12-48 h. All detected cleavage products were compared to adjacent Maxam-Gilbert sequencing reactions, and adjusted one nucleotide 3′ to compensate for the removed base (Ausubel et al., 1987). After autoradiographic analysis, endonuclease activity was assayed by scintillation counting of intact substrate and specific cleavage products excised from the dried gel. End-labeled DNA substrates were prepared according to previously described methods (Hope et al., 1986).

bovine Endo-SR = molecular target: T2, bovine Endo-SR (Bos taurus, UniProt P56541); test: Effect of M^2+ cofactors and EDTA on bovine Endo-SR activity (FIG. 2B); assay type: biochemical; conditions: ≦50 μM
T2 construct: Nuclear extracts for enzyme purification were generated from bovine spleen; from tissue; host or cells: bovine spleen nuclear extract, Fraction V (Superose-12)
T2 sequence (P56541 20-365): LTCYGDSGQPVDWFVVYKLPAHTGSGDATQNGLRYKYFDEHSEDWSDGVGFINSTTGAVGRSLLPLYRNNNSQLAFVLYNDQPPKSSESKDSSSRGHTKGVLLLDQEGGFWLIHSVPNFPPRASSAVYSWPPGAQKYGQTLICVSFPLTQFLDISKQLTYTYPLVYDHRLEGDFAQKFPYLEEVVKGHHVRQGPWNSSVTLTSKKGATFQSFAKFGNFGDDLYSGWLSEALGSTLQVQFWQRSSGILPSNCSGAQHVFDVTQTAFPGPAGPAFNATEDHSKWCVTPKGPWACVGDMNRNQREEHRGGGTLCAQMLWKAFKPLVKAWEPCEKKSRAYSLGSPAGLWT
Description: (§1) FIG. 2B. Effect of various common divalent metal cation (M^2+) species on Endo-SR activity. Nuclease reaction buffer used in these assays contained no Mg^2+, and nuclease reactions were adjusted to various M or EDTA concentrations. Nuclease assays performed with supplemental M^2+ or EDTA were pre-incubated for 30 min on ice prior to addition of the DNA substrate. Specific endonuclease activity values detected in these assays were normalized against nuclease reactions, which contained no supplemental M^2+ or EDTA, and expressed as percentages of this reaction activity. Bovine and murine enzyme activities are represented by open and closed symbols, respectively.
(§2) Endo-SR activity was assayed in 10 μl reactions containing 50 mM sodium acetate (pH 5.5), ˜150 mM NaCl, 0.5 mM MgCl2, ˜250 fmoles of end-labeled DNA substrate (see below), 1 μg sheared salmon sperm DNA, and 1 μl of a diluted Endo-SR fraction. All reactions performed with bovine Endo-SR used Fraction V material (Table 2). Murine Endo-SR used in these assays was purified essentially as previously described (Lyon et al., 1996). All nuclease assays were incubated at 37° C. for 30 min, then mixed with 10 μl of formamide dye and denatured at 95° C. for 5 min prior to size-fractionation on standard sequencing gels. Endo-SR activity values (fmol/min) were determined by quantitation of the radioactivity present in specific nuclease cleavage products and intact substrate (negative control) excised from the dried gel (Lyon et al., 1996). Nuclease assays used to characterize the activity parameters of murine and bovine Endo-SR were performed essentially as previously described (Lyon et al., 1996).

murine Endo-SR = molecular target: T3, murine Endo-SR (Mus musculus, UniProt P56542); test: Effect of M^2+ cofactors and EDTA on murine Endo-SR activity (Example 2, FIG. 2B); assay type: biochemical; conditions: ≦50 μM
T3 construct: Nuclease assays were performed with purified bovine nuclease (Fraction V) and partially purified murine Endo-SR (Lyon et al., 1996); endogenous in cells
T3 sequence (P56542 20-353): T1 sequence (P56542 20-353)
Description: as §1, §2

switch recombination = conditions: without demonstrably affecting cell proliferation or CH gene transcription; Loh et al., 1994a, 1995; cited from earlier work
[1] = molecular target: the molecule itself; test: native size exclusion chromatography (~35 000) compared with SDS-PAGE (Mr ~32 000)

[Ca+2] [Ca^2+]
effect on Endo-SR activity (Endo-SR; 500 μM): significantly enhanced

O=C(O)CN(CCN(CC(=O)O)CC(=O)O)CC(=O)O [EDTA]
inhibition of Endo-SR activity (Endo-SR; 5 mM): ~40%
effect on Endo-SR activity (Endo-SR; 50 mM): completely inhibited; also recorded: complete inhibition
effect on nuclease activity at low concentrations (bovine Endo-SR): relatively resistant
effect on nuclease activity at low concentrations (murine Endo-SR): relatively resistant

[Mg+2] [Mg^2+]
effect on Endo-SR activity (Endo-SR; 500 μM): significantly enhanced; also recorded: maximal activity
effect on nuclease activity at low concentrations (bovine Endo-SR): significant degree of enzyme inhibition
effect on nuclease activity at low concentrations (murine Endo-SR): significant degree of enzyme inhibition

[Zn+2] [Zn^2+]
inhibition of Endo-SR activity (Endo-SR; 50 μM): ~50%
inhibition of Endo-SR activity (Endo-SR; 500 μM): ~95%
effect on nuclease activity at low concentrations (bovine Endo-SR): significant degree of enzyme inhibition
effect on nuclease activity at low concentrations (murine Endo-SR): significant degree of enzyme inhibition

O=C([O-])c1cc(=O)c2c(OCC(O)COc3cccc4oc(C(=O)[O-])cc(=O)c34)cccc2o1.[Na+].[Na+] [disodium cromoglycolate]
effect on switch rearrangement (switch recombination): dramatically repress switch rearrangement

CCCc1c2oc(C(=O)O)cc(=O)c2cc2c(=O)cc(C(=O)O)n(CC)c12 [nedocromil sodium]
effect on switch rearrangement (switch recombination): dramatically repress switch rearrangement

B1: purified bovine Endo-SR (Fraction V, from bovine spleen nuclear extract) (enzyme, UniProt P56541 20-365, looked up)
chain: T2 sequence (P56541 20-365)
notes: Native enzyme purified to homogeneity; also called bovine Endo-SR nuclease; Mr ~32 000 protein species
binding result [1]: no binding
